Measured values published in PubChem BioAssay (NCI).
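The concentration for 50% growth inhibition is given as GI50. TGI denotes the concentration required for complete inhibition of growth.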

Experiments:
Experiment in all cases: growth of human tumour cells (NCI), 384-well format
786-0 renal = test system: 786-0 renal
A498 renal = test system: A498 renal
A549 NSCLC = test system: A549 NSCLC
ACHN renal = test system: ACHN renal
BT-549 breast = test system: BT-549 breast
CAKI-1 renal = test system: CAKI-1 renal
DU-145 prostate = test system: DU-145 prostate
EKVX NSCLC = test system: EKVX NSCLC
HCC-2998 colon = test system: HCC-2998 colon
HCT-116 colon = test system: HCT-116 colon
HCT-15 colon = test system: HCT-15 colon
HL-60(TB) leukemia = test system: HL-60(TB) leukemia
HOP-62 NSCLC = test system: HOP-62 NSCLC
HOP-92 NSCLC = test system: HOP-92 NSCLC
HS 578T breast = test system: HS 578T breast
HT29 colon = test system: HT29 colon
IGROV1 ovarian = test system: IGROV1 ovarian
K-562 leukemia = test system: K-562 leukemia
KM12 colon = test system: KM12 colon
LOX IMVI melanoma = test system: LOX IMVI melanoma
M14 melanoma = test system: M14 melanoma
MALME-3M melanoma = test system: MALME-3M melanoma
MCF7 breast = test system: MCF7 breast
MDA-MB-231 breast = test system: MDA-MB-231 breast
MDA-MB-435 melanoma = test system: MDA-MB-435 melanoma
MDA-MB-468 breast = test system: MDA-MB-468 breast
MOLT-4 leukemia = test system: MOLT-4 leukemia
NCI-H226 lung = test system: NCI-H226 lung
NCI-H23 lung = test system: NCI-H23 lung
NCI-H322M lung = test system: NCI-H322M lung
NCI-H460 NSCLC = test system: NCI-H460 NSCLC
NCI-H522 lung = test system: NCI-H522 lung
NCI/ADR-RES ovarian = test system: NCI/ADR-RES ovarian
OVCAR-4 ovarian = test system: OVCAR-4 ovarian
OVCAR-5 ovarian = test system: OVCAR-5 ovarian
OVCAR-8 ovarian = test system: OVCAR-8 ovarian
PC-3 prostate = test system: PC-3 prostate
RPMI-8226 leukemia = test system: RPMI-8226 leukemia
SF-268 CNS = test system: SF-268 CNS
SF-295 CNS = test system: SF-295 CNS
SF-539 CNS = test system: SF-539 CNS
SK-MEL-2 melanoma = test system: SK-MEL-2 melanoma
SK-MEL-28 melanoma = test system: SK-MEL-28 melanoma
SK-MEL-5 melanoma = test system: SK-MEL-5 melanoma
SK-OV-3 ovarian = test system: SK-OV-3 ovarian
SN12C renal = test system: SN12C renal
SNB-19 CNS = test system: SNB-19 CNS
SNB-75 CNS = test system: SNB-75 CNS
SR leukemia = test system: SR leukemia
SW-620 colon = test system: SW-620 colon
T-47D breast = test system: T-47D breast
TK-10 renal = test system: TK-10 renal
U251 glioblastoma = test system: U251 glioblastoma
UACC-257 melanoma = test system: UACC-257 melanoma
UACC-62 melanoma = test system: UACC-62 melanoma
UO-31 renal = test system: UO-31 renal

## Cc1cnc(-c2ccc(-c3ccc(NC(=O)Nc4c(F)cc(F)cc4F)cc3F)c3c2C(=O)NC3)[nH]1
786-0 renal
  GI50: 575 nM
  TGI: 1890 nM
A498 renal
  GI50: 165 nM
  TGI: 1160 nM
A549 NSCLC
  GI50: 616 nM
  TGI: 2150 nM
ACHN renal
  GI50: 957 nM
  TGI: 4520 nM
BT-549 breast
  GI50: 214 nM
  TGI: 981 nM
CAKI-1 renal
  GI50: 1080 nM
  TGI: 2320 nM
DU-145 prostate
  GI50: 463 nM
  TGI: 1880 nM
EKVX NSCLC
  GI50: 816 nM
  TGI: 3570 nM
HCC-2998 colon
  GI50: 1270 nM
  TGI: 2690 nM
HCT-116 colon
  GI50: 153 nM
  TGI: 1680 nM
HCT-15 colon
  GI50: 748 nM
  TGI: 13100 nM
HL-60(TB) leukemia
  GI50: < 10 nM
  TGI: 121 nM
HOP-62 NSCLC
  GI50: 227 nM
  TGI: 1270 nM
HOP-92 NSCLC
  GI50: 1460 nM
  TGI: 2790 nM
HS 578T breast
  GI50: 232 nM
  TGI: 653 nM
HT29 colon
  GI50: 1060 nM
  TGI: 2270 nM
IGROV1 ovarian
  GI50: 1300 nM
  TGI: 6510 nM
K-562 leukemia
  GI50: 227 nM
  TGI: 1350 nM
KM12 colon
  GI50: < 10 nM
  TGI: 1140 nM
LOX IMVI melanoma
  GI50: 345 nM
  TGI: 1690 nM
M14 melanoma
  GI50: 157 nM
  TGI: 1230 nM
MALME-3M melanoma
  GI50: 52.2 nM
  TGI: 727 nM
MCF7 breast
  GI50: 324 nM
  TGI: 1490 nM
MDA-MB-231 breast
  GI50: 1030 nM
  TGI: 2350 nM
MDA-MB-435 melanoma
  GI50: 397 nM
  TGI: 1760 nM
MDA-MB-468 breast
  GI50: < 10 nM
  TGI: 434 nM
MOLT-4 leukemia
  GI50: < 10 nM
NCI-H226 lung
  GI50: 1360 nM
  TGI: 2740 nM
NCI-H23 lung
  GI50: 450 nM
  TGI: 1700 nM
NCI-H322M lung
  GI50: 1300 nM
  TGI: 3110 nM
NCI-H460 NSCLC
  GI50: < 10 nM
  TGI: 201 nM
NCI-H522 lung
  GI50: 1140 nM
  TGI: 2400 nM
NCI/ADR-RES ovarian
  GI50: > 100000 nM
  TGI: > 100000 nM
OVCAR-4 ovarian
  GI50: 196 nM
  TGI: 452 nM
OVCAR-5 ovarian
  GI50: 1240 nM
  TGI: 2870 nM
OVCAR-8 ovarian
  GI50: 1090 nM
  TGI: 2340 nM
PC-3 prostate
  GI50: 1190 nM
  TGI: 2440 nM
RPMI-8226 leukemia
  GI50: 19.1 nM
  TGI: 386 nM
SF-268 CNS
  GI50: 277 nM
  TGI: 1500 nM
SF-295 CNS
  GI50: 1120 nM
  TGI: 2420 nM
SF-539 CNS
  GI50: 305 nM
  TGI: 1870 nM
SK-MEL-2 melanoma
  GI50: 395 nM
  TGI: 1470 nM
SK-MEL-28 melanoma
  GI50: 633 nM
  TGI: 2090 nM
SK-MEL-5 melanoma
  GI50: 367 nM
  TGI: 1520 nM
SK-OV-3 ovarian
  GI50: 341 nM
  TGI: 1530 nM
SN12C renal
  GI50: 462 nM
  TGI: 2000 nM
SNB-19 CNS
  GI50: 1250 nM
  TGI: 2620 nM
SNB-75 CNS
  GI50: 340 nM
  TGI: 897 nM
SR leukemia
  GI50: < 10 nM
SW-620 colon
  GI50: 234 nM
  TGI: 1310 nM
T-47D breast
  GI50: 1600 nM
  TGI: 3000 nM
TK-10 renal
  GI50: 1130 nM
  TGI: 2420 nM
U251 glioblastoma
  GI50: 623 nM
  TGI: 1960 nM
UACC-257 melanoma
  GI50: 856 nM
  TGI: 2140 nM
UACC-62 melanoma
  GI50: 219 nM
  TGI: 1340 nM
UO-31 renal
  GI50: 161 nM
  TGI: 7350 nM
